Data published in patent publication US4514413A, “Gastric acid secretion inhibiting N-(imidazol-1-ylalkyl)thiourea derivatives” (BASF Aktiengesellschaft, priority 1982, dated 1985).

Columns and labels:
histamine H2 receptor = target: T1, histamine H2 receptor (Rattus norvegicus, UniProt P25102); assay: Inhibition of the dimaprit-induced lowering of the blood pressure (histamine H2 receptor-blocking action); assay type: in vivo, male Sprague-Dawley rats; conditions: for R.A. (relative activity), inhibition of the dimaprit-induced lowering of the blood pressure / inhibition of dimaprit-induced lowering of the blood pressure (in words): rat
T1 construct: In male Sprague-Dawley rats (weight 210-310 g) which have been anesthetized with urethane; from tissue; host or cells: whole animal in vivo: anesthetized male Sprague-Dawley rats
Experimental: The substances tested were administered intravenously 5 minutes before the dimaprit injection. The ED 50% is determined as the dose which inhibits the dimaprit-induced lowering of the blood pressure by 50% (Table 1).

[1] = test system: secretion of gastric acid; assay: Inhibition of the gastric secretion in the rat (pH at the surface of the gastric mucous membrane); assay type: in vivo, female Sprague-Dawley rats; conditions: for R.A. (relative activity), inhibition of the gastric secretion: cimetidine = 1.00, subcutaneous administration; for ED 0.75 (dose which increases the pH by 0.75 on average compared with untreated control animals): subcutaneous administration, 1 hour pretreatment, 48 h fasted
Experimental: Inhibition of the secretion of gastric acid results in an increase in the pH of the gastric mucus membrane. This is investigated on groups of 5 conscious female Sprague-Dawley rats weighing 160-180 g. The animals receive no food for 48 hours (water ad libitum), and are pretreated subcutaneously with various doses of the test substances. […] The dose which increases the pH by 0.75 on average compared with untreated control animals is determined, as the ED 0.75, from the linear regression between the logarithms of the applied doses and the increase in the pH (Table 2).

[2] = cimetidine = 1.00, urethane anesthesia, intravenous administration
[3] = urethane anesthesia, intravenous administration

T1 sequence (P25102 whole entry): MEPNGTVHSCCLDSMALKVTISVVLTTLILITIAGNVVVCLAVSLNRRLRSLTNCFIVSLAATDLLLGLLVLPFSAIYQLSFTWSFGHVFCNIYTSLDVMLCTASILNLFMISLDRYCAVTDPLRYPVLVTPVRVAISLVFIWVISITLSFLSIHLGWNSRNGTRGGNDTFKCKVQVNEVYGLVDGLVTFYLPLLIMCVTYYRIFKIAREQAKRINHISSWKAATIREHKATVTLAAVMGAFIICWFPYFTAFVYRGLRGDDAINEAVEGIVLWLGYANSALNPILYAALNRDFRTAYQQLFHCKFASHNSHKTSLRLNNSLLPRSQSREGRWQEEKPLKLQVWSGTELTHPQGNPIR

## CN/C(=N/CCSCc1nc[nH]c1C)NC#N [Cimetidine, reference compound]
Histamine H2 receptor; [2]
  R.A. (relative activity), inhibition of the dimaprit-induced lowering of the blood pressure: 1.00
Histamine H2 receptor; [3]
  inhibition of dimaprit-induced lowering of the blood pressure (in words): specific and dose-dependent inhibition
[1]
  R.A. (relative activity), inhibition of the gastric secretion: 1.00
  ED 0.75 (dose which increases the pH by 0.75 on average compared with untreated control animals): 0.45 mg/kg

## Cc1nccn1CCCNC(=S)NCCSCc1ccc(CN(C)C)o1.O=C(O)C(=O)O.O=C(O)C(=O)O [Example No. 1, N-[3-(2-methylimidazol-1-yl)-propyl]-N'-{2-[[5-(N,N-dimethylaminomethyl)-furan-2-yl]-methylthio]-ethyl}-thiourea dioxalate]
Histamine H2 receptor; in vivo, iv
  R.A. (relative activity), inhibition of the dimaprit-induced lowering of the blood pressure: 23.91
[1]
  R.A. (relative activity), inhibition of the gastric secretion: 8.65
[1]; in mg/kg
  ED 0.75 (dose which increases the pH by 0.75 on average compared with untreated control animals): 0.052
[1]; vs cimetidine, inhibition of gastric acid secretion, subcutaneous
  times more effective than cimetidine: 8.7 times
[1]; vs ranitidine, inhibition of gastric acid secretion, subcutaneous
  times more effective than ranitidine: 1.7 times

## CC(C)c1nccn1CCCNC(=S)NCCSCc1ccc(CN(C)C)o1 [Example No. 2, N-[3-(2-isopropylimidazol-1-yl)-propyl]-N'-{2-[[5-(N,N-dimethylaminomethyl)-furan-2-yl]-methylthio]-ethyl}-thiourea]
Histamine H2 receptor; [2]
  R.A. (relative activity), inhibition of the dimaprit-induced lowering of the blood pressure: 22.00

## CCc1nccn1CCCNC(=S)NCCSCc1ccc(CN(C)C)o1 [Example No. 3, N-[3-(2-ethylimidazol-1-yl)-propyl]-N'-{2-[[5-(N,N-dimethylaminomethyl)-furan-2-yl]-methylthio]-ethyl}-thiourea dioxalate]
Histamine H2 receptor; [2]
  R.A. (relative activity), inhibition of the dimaprit-induced lowering of the blood pressure: 12.94

## CCCc1nccn1CCCNC(=S)NCCSCc1ccc(CN(C)C)o1 [Example No. 4]
Histamine H2 receptor; [2]
  R.A. (relative activity), inhibition of the dimaprit-induced lowering of the blood pressure: 10.00

## Cc1nc(C)n(CCCNC(=S)NCCSCc2ccc(CN(C)C)o2)c1C [Example No. 8, N[3-(2,4,5-trimethylimidazol-1-yl)-propyl]-N'{2-[[5-(N,Ndimethylamino-methyl)-furan-2-yl]-methylthio]-ethyl}-thiourea]
Histamine H2 receptor; [2]
  R.A. (relative activity), inhibition of the dimaprit-induced lowering of the blood pressure: 26.19

## CCc1ncc(C)n1CCCNC(=S)NCCSCc1ccc(CN(C)C)o1 [Example No. 9]
Histamine H2 receptor; [2]
  R.A. (relative activity), inhibition of the dimaprit-induced lowering of the blood pressure: 10.00

## CNC(=C[N+](=O)[O-])NCCSCc1ccc(CN(C)C)o1 [Ranitidine, reference compound]
Histamine H2 receptor; in vivo, iv
  R.A. (relative activity), inhibition of the dimaprit-induced lowering of the blood pressure: 10.48
Histamine H2 receptor; [3]
  inhibition of dimaprit-induced lowering of the blood pressure (in words): specific and dose-dependent inhibition
[1]
  R.A. (relative activity), inhibition of the gastric secretion: 5.23
[1]; in mg/kg
  ED 0.75 (dose which increases the pH by 0.75 on average compared with untreated control animals): 0.086

## CN(C)CCCSC(=N)N [dimaprit, S-[3-(N,N-dimethylamino)-propyl]-isothiourea, reference compound]
Histamine H2 receptor; dimaprit 3.16 mg intravenously, initial pressures 100±1.1 mm Hg, N=70
  average lowering of the blood pressure: 27±0.7 mm Hg
